Key:
IFNα and IFNβ = assay: Expression of IFNα and IFNβ by Q-PCR in THP-1 cells treated with mitophagosome formation inhibitor Mdivi; type: cell-based, human; conditions: control THP-1 cells treated with Mdivi, with or without SeV or LPS; similar to MCM8 knockdown
[1] = tested on: mitochondrial DNA in cytoplasm; assay: Cytoplasmic DNA source by Q-PCR after nuclear-cytoplasmic separation in THP-1 cells; type: cell-based, human; conditions: control THP-1 cells treated with Mdivi, with or without SeV or LPS; similar to MCM8 knockdown
Description: Therefore, in order to explore whether DNA is produced in cytoplasm and the source, the inventors further knocked down MCM8 in THP-1 cells by transfection with MCM8-specific siRNA and stimulated the cells with SeV or poly(dA:dT). The stimulated cells were subjected to nuclear-cytoplasmic separation (Beyotime nuclear protein and cytoplasmic protein extraction kit was used for the nuclear-cytoplasmic separation herein, and the operation followed the instructions, the same below), and the cytoplasmic DNA was extracted for detecting the source of cytoplasmic DNA by qPCR.
Furthermore, the MCM8-knockdown THP-1 cells were stimulated or not stimulated with SeV and LPS, respectively, and treated with or without the mitophagosome formation inhibitor Mdivi, and the cytoplasmic DNA was extracted, and the content of mitochondrial DNA in cytoplasm and the expressions of IFNα and IFNβ were detected by Q-PCR.

COc1cc(-n2c(=S)[nH]c3ccccc3c2=O)c(Cl)cc1Cl [Mdivi]
expression levels of IFNα and IFNβ (IFNα and IFNβ): increase in the expression levels of IFNα and IFNβ | mtDNA aggregation in cytoplasm (Q-PCR) [1]: mtDNA aggregation
